Measurements published in patent publication US12559455B2, “Compound as a UBR box domain ligand” (AUTOTAC INC., priority 2020, dated 2026).
Peptide text beside a SMILES is read from it. * marks the point of attachment. Cbz = O=C(OCc1ccccc1)*

Tests used:
[1] = system: UBR1; experiment: Inhibition of R-nsP4 degradation by in vitro transcription/translation method; format: biochemical; settings: compound 1 uM, 30° C. for 40 minutes, DHFR-Ub-R-nsP4 plasmid, immunoblotting
Experimental: A TnT® Quick Coupled Transcription/Translation System kit was used to confirm the R-nsP4 expression of the compounds. After a pre-mix was made using Transcend Biotin-Lysyl-tRNA, methionine, bestatin, a TnTquick Master mix and a DHFR-Ub-R-nsP4 plasmid, the pre-mix was mixed with a compound (1 uM). After each sample was reacted at 30° C. for 40 minutes, a 5×SDS loading dye was added thereto. After the resulting mixture was reacted at 95° C. for 2 minutes, 5 uL was taken and aliquoted into each well of an acrylamide gel, and then an immunoblotting method was performed, and the experimental results are illustrated in [FIG. 2]. For an in vitro transcription/translation method, a representative experiment was schematized from three or more independent experiments.
Referring to FIG. 2, it can be confirmed that the level of R-nsP4 is increased by Compound 2, Compound 3, Compound 7, Compound 12, Compound 14, and Compound 16 compared to the control. That is, it could be confirmed that in the case of treatment with the compound according to the present invention, the R-nsP4 level was increased by binding to UBR1.

[2] = molecular target: T1, UBR1 (Rattus norvegicus, UniProt A0A8I5ZK69); experiment: Inhibition of muscle cell actin degradation by immunoblotting; format: cell-based; settings: L6 cell line, compound 5 uM, 24 hours
T1 construct: endogenous in cells; host or cells: L6 rat muscle-derived cells
T1 sequence (A0A8I5ZK69 1-1749): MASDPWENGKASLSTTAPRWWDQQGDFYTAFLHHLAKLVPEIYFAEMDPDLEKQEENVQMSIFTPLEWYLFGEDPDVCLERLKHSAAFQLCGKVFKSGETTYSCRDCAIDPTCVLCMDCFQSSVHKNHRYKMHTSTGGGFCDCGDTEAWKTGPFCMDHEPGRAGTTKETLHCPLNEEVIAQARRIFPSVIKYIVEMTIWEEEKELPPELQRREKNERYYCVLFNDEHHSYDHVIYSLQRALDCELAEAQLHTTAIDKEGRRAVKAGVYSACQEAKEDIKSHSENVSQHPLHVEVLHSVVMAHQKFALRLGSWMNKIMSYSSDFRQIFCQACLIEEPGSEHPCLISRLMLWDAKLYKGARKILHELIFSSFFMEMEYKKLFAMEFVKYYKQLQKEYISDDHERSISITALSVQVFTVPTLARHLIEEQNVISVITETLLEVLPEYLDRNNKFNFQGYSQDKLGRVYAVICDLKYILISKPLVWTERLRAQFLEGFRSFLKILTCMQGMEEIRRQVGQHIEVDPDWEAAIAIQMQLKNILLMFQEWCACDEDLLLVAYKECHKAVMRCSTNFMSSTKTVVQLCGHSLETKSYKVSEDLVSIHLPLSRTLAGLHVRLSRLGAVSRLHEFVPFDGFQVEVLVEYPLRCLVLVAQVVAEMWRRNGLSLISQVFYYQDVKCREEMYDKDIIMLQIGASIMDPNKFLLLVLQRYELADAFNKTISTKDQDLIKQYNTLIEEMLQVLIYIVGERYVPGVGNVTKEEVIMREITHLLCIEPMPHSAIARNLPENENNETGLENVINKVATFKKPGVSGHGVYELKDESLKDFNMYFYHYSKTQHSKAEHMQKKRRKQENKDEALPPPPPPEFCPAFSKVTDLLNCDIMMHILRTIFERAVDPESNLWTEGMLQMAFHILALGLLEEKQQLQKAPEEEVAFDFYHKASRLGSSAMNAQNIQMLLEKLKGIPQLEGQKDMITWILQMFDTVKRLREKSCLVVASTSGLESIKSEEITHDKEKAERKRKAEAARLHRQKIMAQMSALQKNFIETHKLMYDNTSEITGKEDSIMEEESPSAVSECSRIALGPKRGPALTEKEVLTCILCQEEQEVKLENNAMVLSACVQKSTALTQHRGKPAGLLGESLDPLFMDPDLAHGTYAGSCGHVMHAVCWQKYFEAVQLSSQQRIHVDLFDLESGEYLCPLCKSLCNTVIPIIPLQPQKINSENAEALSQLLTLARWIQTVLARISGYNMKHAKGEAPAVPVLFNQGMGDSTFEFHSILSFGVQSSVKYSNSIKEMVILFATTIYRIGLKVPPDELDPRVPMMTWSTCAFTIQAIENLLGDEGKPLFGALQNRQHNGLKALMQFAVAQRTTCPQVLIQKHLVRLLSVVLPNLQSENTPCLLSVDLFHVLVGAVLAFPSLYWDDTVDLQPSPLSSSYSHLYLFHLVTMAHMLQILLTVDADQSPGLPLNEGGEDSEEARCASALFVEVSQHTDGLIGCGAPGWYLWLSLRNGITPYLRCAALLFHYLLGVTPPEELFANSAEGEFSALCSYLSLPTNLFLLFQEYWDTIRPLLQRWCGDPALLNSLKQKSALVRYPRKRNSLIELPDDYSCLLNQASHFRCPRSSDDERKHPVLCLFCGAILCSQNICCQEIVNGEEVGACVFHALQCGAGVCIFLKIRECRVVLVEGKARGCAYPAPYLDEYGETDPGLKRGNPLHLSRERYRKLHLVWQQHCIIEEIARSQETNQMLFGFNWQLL
Experimental: To evaluate the actin degradation of compounds in muscle cells, a L6 cell line, which is a rat muscle-derived cell, was cultured using a DMEM medium containing 10% FBS and 1% streptomycin/penicillin in an incubator in which 5% carbon dioxide was maintained. In order to measure the UBR1 binding strength according to the treatment with a representative compound selected from the present compounds, cells were aliquoted into a 12-well plate. The cells were additionally cultured for 24 hours so as to be completely attached to the surface of the plate. […] To extract proteins from the collected cells, 50 uL of a lysis buffer (20 mM Tris, pH 7.4, 150 mM NaCl, 1% Triton-X-100, 2 mM NaF, 2 mM EDTA, 2 mM b-glycerophosphate, 5 mM sodium orthovanadate, 1 mM PMSF, leupeptin, aprotenin) was injected into each sample, and the cells were lysed. A sample buffer was added to each sample based on the measured total protein concentration, and the mixture was reacted at 100° C. for 5 minutes. After 5 uL was taken from the completely reacted sample and aliquoted into each well of an acrylamide gel, an immunoblotting method was performed, and the experimental results were illustrated in [FIG. 4], [FIG. 5], [FIG. 6], [FIG. 7], [FIG. 8], and [FIG. 9]. For the immunoblotting method, a representative experiment was schematized from three or more independent experiments.

[3] = molecular target: T2, UBR box of Human UBR1 (Homo sapiens, UniProt Q8IWV7); experiment: UBR box domain binding by microscale thermophoresis (MST); settings: RED-NHS labeled UBR1 UBR box protein (Gln97-Pro168), FIGS. 12 to 19
T2 construct: A Gln97-Pro168 portion corresponding to the UBR box of Human UBR1; made in house; host or cells: E. coli
T2 sequence (Q8IWV7 97-168): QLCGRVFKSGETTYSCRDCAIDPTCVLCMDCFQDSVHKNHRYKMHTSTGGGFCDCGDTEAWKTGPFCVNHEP
Experimental: A Gln97-Pro168 portion corresponding to the UBR box of Human UBR1 (UniProt ID: Q81WV7) was cloned into a modified expression vector, and then expressed in E. coli. After affinity chromatography was used, a tag was removed by a protease, and then Gly-His-Met was added to the N-terminal. After ion chromatography was performed, a final UBR box protein of a UBR1 was purified using gel filtration chromatography in a buffer composition of 10 mM NaCl, 20 mM Tris-HCl, 2 mM beta-mercaptoethanol, and pH 7.5.
A dye of the Monolith protein labeling kit RED-NHS 2nd generation (Cat #MO-L011) has an NHS-ester group that forms a covalent bond with primary amines (lysine residues). This dye is optimized for a Monolith-series device equipped with a RED detector. A purified UBR1 UBR box protein was labeled according to the presented protocol using this kit.
Thermophoresis refers to a phenomenon in which particles move due to a temperature gradient. Particles present in a high temperature region have greater kinetic energy than particles present in a low temperature region, and more frequently collide with surrounding particles with greater energy. As a result, particles move from the high temperature region to the low temperature region.
Thermophoresis of proteins is typically different from that of protein-ligand complexes. This is because the binding of the ligand changes its size, electric charge, and solvation energy. […] Therefore, the binding of the UBR1 UBR box protein and the ligand compound was measured using MST, and it was confirmed that the presented ligand binds to the UBR1 UBR box (see FIGS. 12 to 19).

[4] = molecular target: T1, UBR1; experiment: Inhibition of intracellular RGS4 degradation by transfection (immunoblotting); format: cell-based; settings: L6 cell line transfected with RGS4 plasmid, compound 5 uM, 24 hours
Experimental: A L6 cell line, which is a rat muscle-derived cell, was cultured using a DMEM medium containing 10% FBS and 1% streptomycin/penicillin in an incubator in which 5% carbon dioxide was maintained. In order to measure the UBR1 binding strength according to the treatment with a representative compound selected from the present compounds, cells were aliquoted into a 6-well plate. The cells were additionally cultured for 24 hours so as to be completely attached to the surface of the plate. Opti-MEM, Lipofectamine, and an RGS4plasmid was reacted for transfection. After the reaction was completed, the cells are treated such that DNA was expressed intracellularly. […] To extract proteins from the collected cells, 50 uL of a lysis buffer (20 mM Tris, pH 7.4, 150 mM NaCl, 1% Triton-X-100, 2 mM NaF, 2 mM EDTA, 2 mM b-glycerophosphate, 5 mM sodium orthovanadate, 1 mM PMSF, leupeptin, aprotenin) was injected into each sample, and the cells were lysed. A sample buffer was added to each sample based on the measured total protein concentration, and the mixture was reacted at 100° C. for 5 minutes. After 5 uL was taken from the completely reacted sample and aliquoted into each well of an acrylamide gel, an immunoblotting method was performed, and the experimental results are illustrated in [FIG. 3]. […]

[5] = molecular target: T1, UBR1; experiment: UBR box domain binding strength by immunoprecipitation analysis, UBR1; format: cell-based; settings: L6 cell line, 24 hours, immunoprecipitation and immunoblotting
Experimental: (§1) To evaluate the binding strength of the compounds to UBR1, UBR2, UBR3 and UBR5 through the UBR box domain, a L6 cell line, which is a rat muscle-derived cell, was cultured using a DMEM medium containing 10% FBS and 1% streptomycin/penicillin in an incubator in which 5% carbon dioxide was maintained. In order to measure the UBR1 binding strength according to the treatment with a representative compound selected from the present compounds, cells were aliquoted into a 100 pi dish. The cells were additionally cultured for 24 hours so as to be completely attached to the surface of the plate. […] To extract proteins from the collected cells, 50 uL of a lysis buffer (20 mM Tris, pH 7.4, 150 mM NaCl, 1% Triton-X-100, 2 mM NaF, 2 mM EDTA, 2 mM b-glycerophosphate, 5 mM sodium orthovanadate, 1 mM PMSF, leupeptin, aprotenin) was injected into each sample, and the cells were lysed. Each sample was reacted with a UBR1 antibody for 16 hours based on the measured total protein concentration, and then reacted with Protein A/G beads for 3 hours. A sample buffer was added to the completely reacted sample and the resulting mixture was reacted at 100° C. for 5 minutes. After 20 uL was taken from the completely reacted sample and aliquoted into each well of an acrylamide gel, an immunoblotting method was performed, and the experimental results are illustrated in [FIG. 10] and [FIG. 11]. […]

[6] = molecular target: T3, UBR2 (Rattus norvegicus, UniProt A0A8I5YBG5); experiment: UBR box domain binding strength by immunoprecipitation analysis, UBR2; format: cell-based; settings: L6 cell line, compound 5 uM, 24 hours, immunoprecipitation and immunoblotting
T3 construct: endogenous in cells; host or cells: L6 rat muscle-derived cells
T3 sequence (A0A8I5YBG5 1-1755): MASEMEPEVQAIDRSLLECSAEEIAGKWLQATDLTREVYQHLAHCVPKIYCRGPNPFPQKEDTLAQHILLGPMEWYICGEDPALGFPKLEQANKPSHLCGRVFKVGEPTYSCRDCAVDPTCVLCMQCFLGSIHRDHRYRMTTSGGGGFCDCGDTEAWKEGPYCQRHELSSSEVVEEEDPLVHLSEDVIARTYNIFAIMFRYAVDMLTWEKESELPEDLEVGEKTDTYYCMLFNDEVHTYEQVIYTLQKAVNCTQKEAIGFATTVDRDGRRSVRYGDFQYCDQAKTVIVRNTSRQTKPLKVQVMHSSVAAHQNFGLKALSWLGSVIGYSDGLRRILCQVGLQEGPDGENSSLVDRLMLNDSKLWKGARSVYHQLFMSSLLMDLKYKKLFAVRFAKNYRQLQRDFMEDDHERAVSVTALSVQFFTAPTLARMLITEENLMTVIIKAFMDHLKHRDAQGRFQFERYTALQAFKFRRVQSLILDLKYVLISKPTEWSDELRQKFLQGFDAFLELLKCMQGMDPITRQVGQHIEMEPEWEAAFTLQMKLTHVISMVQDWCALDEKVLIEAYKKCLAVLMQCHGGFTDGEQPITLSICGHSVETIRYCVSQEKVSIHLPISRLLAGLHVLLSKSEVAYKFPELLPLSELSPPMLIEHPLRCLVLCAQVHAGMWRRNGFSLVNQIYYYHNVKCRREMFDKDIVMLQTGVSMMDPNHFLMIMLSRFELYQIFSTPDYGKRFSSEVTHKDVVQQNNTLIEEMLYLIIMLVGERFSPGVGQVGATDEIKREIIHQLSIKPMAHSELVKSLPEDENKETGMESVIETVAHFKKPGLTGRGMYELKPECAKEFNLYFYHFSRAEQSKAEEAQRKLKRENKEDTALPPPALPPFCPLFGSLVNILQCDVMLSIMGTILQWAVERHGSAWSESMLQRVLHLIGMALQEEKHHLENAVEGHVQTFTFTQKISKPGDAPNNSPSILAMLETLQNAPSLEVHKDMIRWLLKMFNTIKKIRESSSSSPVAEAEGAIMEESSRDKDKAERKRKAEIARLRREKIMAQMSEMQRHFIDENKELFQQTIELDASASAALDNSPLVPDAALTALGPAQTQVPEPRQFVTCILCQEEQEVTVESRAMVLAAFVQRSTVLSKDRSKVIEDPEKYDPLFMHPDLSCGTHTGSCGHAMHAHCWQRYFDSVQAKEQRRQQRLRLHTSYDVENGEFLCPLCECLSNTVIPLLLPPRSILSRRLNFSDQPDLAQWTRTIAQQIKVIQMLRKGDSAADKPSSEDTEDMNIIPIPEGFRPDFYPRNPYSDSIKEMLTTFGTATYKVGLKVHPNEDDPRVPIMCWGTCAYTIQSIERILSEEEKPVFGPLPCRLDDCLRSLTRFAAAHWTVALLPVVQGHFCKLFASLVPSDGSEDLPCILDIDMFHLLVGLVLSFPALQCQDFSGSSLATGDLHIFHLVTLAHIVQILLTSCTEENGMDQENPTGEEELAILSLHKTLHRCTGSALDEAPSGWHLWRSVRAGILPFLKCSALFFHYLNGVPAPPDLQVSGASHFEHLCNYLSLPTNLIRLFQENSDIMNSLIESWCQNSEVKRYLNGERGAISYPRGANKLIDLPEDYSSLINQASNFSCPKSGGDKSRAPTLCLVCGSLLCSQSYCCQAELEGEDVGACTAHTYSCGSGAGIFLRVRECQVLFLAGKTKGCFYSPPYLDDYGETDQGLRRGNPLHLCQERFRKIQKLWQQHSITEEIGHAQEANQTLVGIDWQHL
Experimental: as §1

[7] = molecular target: T4, UBR3 (Rattus norvegicus, UniProt D4A7F0); experiment: UBR box domain binding strength by immunoprecipitation analysis, UBR3; format: cell-based; settings: L6 cell line, compound 5 uM, 24 hours, immunoprecipitation and immunoblotting
T4 construct: endogenous in cells; host or cells: L6 rat muscle-derived cells
Experimental: as §1

[8] = molecular target: T5, UBR5 (Rattus norvegicus, UniProt Q62671); experiment: UBR box domain binding strength by immunoprecipitation analysis, UBR5; format: cell-based; settings: L6 cell line, compound 5 uM, 24 hours, immunoprecipitation and immunoblotting
T5 construct: endogenous in cells; host or cells: L6 rat muscle-derived cells
Experimental: as §1

[9] = system: L6 cell line; experiment: Confirmation of whether muscle actin is Arg/N-degron pathway substrate (immunoblotting); format: cell-based, rat; settings: MG132 10 uM, 24 hours
Experimental: A L6 cell line, which is a rat muscle-derived cell, was cultured using a DMEM medium containing 10% FBS and 1% streptomycin/penicillin in an incubator in which 5% carbon dioxide was maintained, and cells were aliquoted into a 12-well plate after the culture. The cells were additionally cultured for 24 hours so as to be completely attached to the surface of the plate. To confirm whether MG132 increased UBR1 binding, cells were collected after treatment with MG132 (10 uM) alone for 24 hours. To extract proteins from the collected cells, 50 uL of a lysis buffer (20 mM Tris, pH 7.4, 150 mM NaCl, 1% Triton-X-100, 2 mM NaF, 2 mM EDTA, 2 mM b-glycerophosphate, 5 mM sodium orthovanadate, 1 mM PMSF, leupeptin, aprotenin) was injected into each sample, and the cells were lysed. A sample buffer was added to each sample based on the measured total protein concentration, and the mixture was reacted at 100° C. for 5 minutes. After 5 uL was taken from the completely reacted sample and aliquoted into each well of an acrylamide gel, an immunoblotting method was performed, and the experimental results are illustrated in [FIG. 1]. For the immunoblotting method, a representative experiment was schematized from three or more independent experiments.

For `Nc1ccc(S(=O)(=O)NCC(=O)c2ccc(O)cc2)cc1` [Compound 12, 4-amino-N-(2-(4-hydroxyphenyl)-2-oxoethyl)benzenesulfonamide], the “level of R-nsP4 compared to the control” value [1] was “increased”, the “level of ACTG2 compared to the control” value [2] was “further increased” and the “binding to UBR1 UBR box (MST)” value [3] was “binds”.

For `Nc1ccc(S(=O)(=O)NNC(=O)c2ccc(O)cc2)cc1` [Compound 2, 4-amino-N′-(4-hydroxybenzoyl)benzenesulfonohydrazide], the “level of R-nsP4 compared to the control” value [1] was “increased”, the “level of RGS4 compared to the control” value [4] was “increased” and the “level of ACTA1 compared to the control” value [2] was “further increased”. For the same compound, the “binding strength of UBR1 and ACTA1” value ([5]; compound 5 uM) was “reduced”, the “binding strength of UBR2 and ACTA1” value [6] was “reduced” and the “binding strength of UBR3 and ACTA1” value [7] was “reduced”. For the same compound, the “binding strength of UBR5 and ACTA1” value [8] was “reduced” and the “binding to UBR1 UBR box (MST)” value [3] was “binds”.

In the case of `N=C(N)c1ccc(S(=O)(=O)NNC(=O)c2ccc(O)cc2)cc1` [Compound 14, 4-((2-(4-hydroxybenzoyl)hydrazinyl)sulfonyl)benzimidamide], the “level of R-nsP4 compared to the control” value [1] is reported as “increased” and the “level of ACTG2 compared to the control” value [2] is reported as “further increased”.

For `Nc1ccc(S(=O)(=O)NNC(=O)c2ccc(O)cc2)cc1N1CCOCC1` [Compound 3, 4-amino-N′-(4-hydroxybenzoyl)-3-morpholinobenzenesulfonohydrazide], the “level of R-nsP4 compared to the control” value [1] was “increased”, the “level of RGS4 compared to the control” value [4] was “increased” and the “level of ACTA1 compared to the control” value [2] was “further increased”.

In the case of `Nc1ccc(S(=O)(=O)NNC(=O)c2cccc(-c3ccccc3)c2)cc1` [Compound 7, N′-([1,1′-biphenyl]-3-carbonyl)-4-aminobenzenesulfonohydrazide], the “level of R-nsP4 compared to the control” value [1] is reported as “increased” and the “level of ACTA1 compared to the control” value [2] is reported as “further increased”.

`CC(C)C[C@@H](C=O)NC(=O)[C@H](CC(C)C)NC(=O)[C@H](CC(C)C)NC(=O)OCc1ccccc1` [MG132] (Cbz-Leu-Leu-Leu-aldehyde) was tested, and the “level of ACTA1 compared to a control” value [9] was “increased”, the “level of ACTC1 compared to a control” value [9] was “increased” and the “level of ACTG2 compared to a control” value [9] was “increased”. For the same compound, the “binding strength between UBR1 and a substrate ACTA1” value ([5]; MG132 10 uM as negative control) was “maintained”.

In the case of `Nc1ccc(S(=O)(=O)CNC(=O)c2ccc(O)cc2)cc1` [Compound 16, N-(((4-aminophenyl)sulfonyl)methyl)-4-hydroxybenzamide], the “level of R-nsP4 compared to the control” value [1] is reported as “increased” and the “level of ACTA1 compared to the control” value [2] is reported as “further increased”.
